# Data from patent US20170258769A1, “A Method for Topically Treating Actinic Keratosis on the Trunk (except chest) and Extremities with Ingenol 3-(3,5-diethylisoxazole-4-carboxylate)” (LEO Laboratories Limited, priority 2014, published 2017).
# Assays:
# [1] = Part 1: dose escalation trial, gel once daily for two consecutive days, dose limiting toxicity based on local skin reactions; assay type: in vivo, human
# From the text: Local skin reactions (LSRs) occur sometimes in the treated area. Often LSRs are quantified by a scale evaluating the following types of skin reactions: erythema, flaking/scaling, crusting, swelling, vasiculation/postulation, and erosion/ulceration which are categorized into categories 0-4 depending on the severity of the reactions. The present invention utilizes data obtained from a previous dose escalation trial, wherein maximal tolerated doses were identified.
# In the trial pre-defined grades of LSRs will constitute Dose Limiting Toxicity.
# Dose Limiting toxicity (DLT) is defined one or more of the following LSRs: • crusting Grade 4 • Erosion/ulceration Grade 4 • vesiculation/postulation Grade 4 or
# Two or more of the following LSRs: • Crusting Grade 3 • Swelling grade 4 • Erosion/ulceration Grade 3 • vesiculation/postulation Grade 3 or • other clinically relevant signs or symptoms observed, which the Investigator judges to be counted as a DLT. Maximum tolerated dose (MTD) is declared as dose level at which less than 4 subjects out of experience a DLT of cohort of 12 subjects.
# Part 1 was a dose escalation study conducted with a once daily application of trial medication for two consecutive days and continued until the MTD was identified.
# Dose escalation proceeded if the safety and tolerability data of the subject up to day 8 was reviewed and considered satisfactory. The treatment consisted of once daily treatment for 2 consecutive days. Up to 5 different doses may be investigated in cohorts of 1 subject. The number of subjects in each cohort depended on the number of observed DLTs. However, the MTD was always be confirmed in a cohort of 12 subjects. […] Part 2 is a study of the efficacy of the 0.1% dose identified in part 1 in a three day regimen.
# Part 1: Trial medication, ingenol 3-(3,5-diethylisoxazole-4-carboxylate) gel, will be applied to the treatment area once daily for two consecutive days until the maximum tolerated dose has been reached for each formulation. Up to five different doses of active compound in gel may be investigated in cohorts 12 subjects. […]
# actinic keratosis = assay: Part 2: open-label trial, 0.1% gel once daily for three consecutive days on trunk (except chest) and extremities; assay type: in vivo, human
# From the text: The outcome for Part 2 is safety and efficacy in a once daily application for three consecutive days on the trunk (except chest) and extremities. The efficacy in treating of the AK will be measured as reduction in AK count in the treated area of lesions which are not considered hyperkeratotic/hypertrophic.
# In parallel the efficacy in treating of the AK will be measured as reduction in AK count in the treated area of lesions which are considered hyperkeratotic/hypertrophic.
# The reduction in AK count will be performed at week 4 and 8 no matter the type of lesion. Also complete clearance of AKs in the treated area which are not considered hyperkeratotic/hypertrophic at week 8 will be measured.
# The trial medication applied is preferably a gel. The gel formulation comprises: isopropyl alcohol, hydroxyethyl cellulose, benzyl alcohol, citric acid monohydrate, sodium citrate dehydrate and water and active compound in a 0.1% concentration. For this particular trial, the dosing is two unit dose tubes daily, each containing 0.67 g.
# To qualify for part 2 of the trial, the subjects must have 5-20 clinically visible and discrete AKs within a contiguous are of approximately 250 cm^2 area on the trunk (except chest) and extremities. In addition to the requirement of 5-20 clinically typical, visible and discrete AKs within the selected treatment area, subjects may also have visible and discrete hyperkeratotic/hypertrophic lesions in this area. The subjects will be treated with a dose of 0.1% as a once daily three consecutive days treatment and followed for 8 weeks.
# The trial consists of an initial part, where 18 subjects will be treated on the trunk (except chest) and extremities. […] As this is a safety trial, it is considered justified to conduct this clinical trial as an open-label, uncontrolled trial. An early safety and tolerability evaluation will be performed following the 3 days treatment. If safety and tolerability is found acceptable by the Early Data Review Committee, and additional 44 subjects will be enrolled in order to expand safety observations and obtain an estimate of treatment efficacy.
# LSRs are evaluated at all visits following visit 1. AK lesion counts are performed on Visit 2, 6 and 7.
# tactile) assessment of the extent of photo-damage in the treatment area with respect to 1) fine wrinkling, 2) coarse wrinkling, 3) mottled pigmentation, 4) roughness, 5) sallowness, 6) skin laxity, and 7) telangiectasia. Severity for each of these characteristics will be on a 5-point scale: None (0), Mild (1), Moderate (2), Severe (3), Extreme (4).
# At Visit 7 (Week 8) the Investigator will make an overall clinical (visual and tactile) assessment of the subject's photo-damage change from baseline in the treatment area (including an integrated assessment of fine wrinkling, coarse wrinkling, mottled pigmentation, roughness, sallowness, skin laxity, and telangiectasia based on the subject's appearance at the baseline visit).
# At Visit 7 (Week 8), the subjects will complete a self-assessment questionnaire evaluating the change in the 1) overall appearance of the skin and 2) overall feel of the skin after treatment. The scoring will be on a 5-point scale: Much worsened, somewhat worsened, no change, somewhat improved, much improved.
# The secondary response criteria will be analysed for the full analysis set and for the per protocol analysis set. The ratio of number of AK lesions at week 8 relative to baseline, excluding lesions identified at base line as hyperkeratotic/hypertrophic lesions, will be tabulated by treatment group. Separately for each treatment group, the rate and corresponding 95% confidence interval will be estimated from a negative binomial regression on the AK count at week 8 with the log baseline value as an offset variable. The same analysis will be performed for the subgroup of lesions identified as hyperkeratotic/hypertrophic at baseline. […]
# dermal tumours = assay: in vivo studies in mice, effects on dermal tumours
# From the text: The exact mechanism of action of ingenol 3-(3,5-diethylisoxazole-4-carboxylate) continues to be investigated, but it is believed that ingenol 3-(3,5-diethylisoxazole-4-carboxylate) has a dual mechanism of action inducing cell death as well as stimulation of immune response.
# [2] = highest dose 0.1%, once daily for 2 consecutive days
structure (smiles),measurement,setting,value
"CCc1noc(CC)c1C(=O)O[C@H]1C(C)=C[C@]23C(=O)[C@@H](C=C(CO)[C@@H](O)[C@]12O)[C@H]1[C@@H](C[C@H]3C)C1(C)C [ingenol 3-(3,5-diethylisoxazole-4-carboxylate)]",dose limiting toxicity (DLT),[1]; [2],no real DLT was identified
same,tolerability,[1]; [2],well tolerated
same,tolerability with respect to LSRs and application site reaction,"[1]; selected dose (0.1%), two days dosing regimen",well tolerated
same,side-effects,"actinic keratosis; 0.1% gel, once daily three consecutive days",acceptable
same,reduction in AK count,"actinic keratosis; 0.1% gel, once daily three consecutive days, approx. 250 cm^2 area, week 8, 62 patients",59%
same,complete clearance,"actinic keratosis; 0.1% gel, once daily three consecutive days, week 8",23%
same,time at which side-effects maximize,"actinic keratosis; 0.1% gel, once daily three consecutive days, rapid decline thereafter",4 days
same,cosmetic outcome of the treatment,"actinic keratosis; 0.1% gel, three day regimen",good
same,patients with photo damage improved,"actinic keratosis; investigator assessment, fraction of patients",two-thirds
same,subjects reporting improvement in appearance and feel,actinic keratosis; self-assessment by subject,more than 70%
same,"efficacy in eliminating dermal tumours, compared with ingenol mebutate",dermal tumours,more efficacious than ingenol mebutate
